Tests used:
[1] = system: Watanabe Heritable Hyperlipidemic Rabbits (WHHL); experiment: Lucigenin chemiluminescence for NADPH derived superoxide in WHHL aortic lysates; type: in vivo, rabbit; settings: vs control
Description: Oxidative stress has been implicated in atherosclerosis. Superoxide (O2^•−) derived from NADPH could potentially trigger a free radical chain reaction which could potentially catalyze atherosclerotic plaque formation. Rabbit aorta was homogenized in PBS, and the protein concentration was adjusted to 5 μg/μl. 20 ul/well of cell lysates were plated on a 96-well microplate in Kreps-Hepes Buffer (pH=7.4; initially gassed with 95% O2, and 5% CO2). The baseline O2^•− production was measured with 5 μM Lucigenin. NADPH induced O2^•− production was measured by adding NADPH (100 μM). Measurements were performed with Berthold Luminometer LB 960. Luminometer settings were 0.1 s measurement and 30s kinetics.

[2] = system: Watanabe Heritable Hyperlipidemic Rabbits (WHHL); experiment: Morphometric analysis of atherosclerotic burden in WHHL rabbits; type: in vivo, rabbit; settings: end of 12 weeks, H&E morphometry
Description: Segments of descending thoracic aorta were embedded in Optimal Cutting Temperature compound (Tissue-Tek, Sakura Finetek USA Inc, Torrance, Calif.) and frozen on dry ice. En face sections were then prepared. To analyze atherosclerotic burden, 8 sections (4 μm thick) were collected at intervals of 20 μm. After H&E staining, each section was digitized with a digital camera and analyzed using a microscope (Zeiss Axioskop with Spot I digital camera, Jena, Germany) with National Institutes of Health (NIH) Image software version 1.61. Results were expressed as mm^2. Morphometric assessment of plaque burden in the thoracic aorta at the end of 12 weeks corroborated the anti-atherosclerotic effects of INV-75 by MRI on the abdominal aorta. The summary of atherosclerotic burden in abdominal aorta of control and INV-75 groups of WHHL rabbits are presented. n=5/group. *, p<0.05 vs control animals, n=4, using un-paired t test. Approximately 60% reduction in atherosclerosis burden in WHHL rabbits compared to control group was observed (FIG. 9).

[3] = system: SREBP-2; experiment: SREBP2 nuclear binding by EMSA in HepG2 cells; type: cell-based, human
Description: FIG. 5A is a graph showing in vitro time course of course of Sterol Regulatory and Binding Protein-2 (SREBP2) activity measurement with INV-75. HepG2 cells were stimulated with INV-75 (0.1 mM) for four hours and the binding activity of SREBP2 to nuclear proteins was measured by electrophoretic migration shift assay (EMSA). A total of three experiments were performed. *, p<0.01 by ANOVA compared to vehicle.
FIG. 5B is a graph showing the dose dependent effects of INV-75 on SREBP2 activity. HepG2 cells were stimulated with multiple concentrations of INV-75 for 1 hour and binding activity of SREBP2 in nuclear proteins was measured by electrophoretic migration shift assay (EMSA). A total of three experiments were performed. *, p<0.01 by ANOVA compared to vehicle.
A family of transcription factors designated SREBP (sterol regulatory element binding proteins) regulate synthesis of cholesterol and fatty acids. Of these, SREBP-2 mainly regulates cholesterol biosynthesis by alteration of cholesterol synthesis enzymes and LDL receptor expression (SREBP-1c mainly regulates fatty acid synthesis). […] The time course with this dose and dose dependence was analyzed. Next we assessed the expression of both precursor and mature form of SREBP-2 in the cytoplasm by western analysis. Both time course and dose dependence of mature form of SREBP-2 was analyzed.

[4] = system: SREBP-2; experiment: SREBP-2 precursor and mature form by western analysis in HepG2 cells; type: cell-based, human; settings: HepG2, 1 hour
Description: FIG. 5C is a graph showing in vitro time course SREBP2 activation measured by the assessment of the mature form with INV-75 in the cytoplasm of treated cells. HepG2 cells were stimulated with INV-75 (0.1 mM) for four hours and the mature and precursor forms of SREBP2 was measured by western blot analysis. A total of three experiments were performed. *, p<0.01 by ANOVA compared to vehicle. The corresponding western blot is depicted on the right. Time is in hours on the right.
FIG. 5D is a graph showing dose dependent effects of INV-75 on SREBP2 activation assessed with mature form INV-75. HepG2 cells were stimulated with multiple concentrations of INV-75 for 1 hour and the mature and precursor forms of SREBP2 was measured by western blot analysis. A total of three experiments were performed. *, p<0.01 by ANOVA compared to vehicle. Dose of INV-75 is log molar concentration.
A family of transcription factors designated SREBP (sterol regulatory element binding proteins) regulate synthesis of cholesterol and fatty acids. […] The time course with this dose and dose dependence was analyzed. Next we assessed the expression of both precursor and mature form of SREBP-2 in the cytoplasm by western analysis. Both time course and dose dependence of mature form of SREBP-2 was analyzed.

[5] = target: T1, PPARα (Homo sapiens, UniProt Q07869); experiment: GAL4-PPARα-LBD luciferase assay in HepG2 cells; type: cell-based
T1 construct: HepG2 cells transfected with yeast GAL4-PPARα-LBD plasmid+UAS-Luciferase; expressed in transfected cells; host or cells: HepG2
T1 sequence (Q07869 239-466 limits assumed): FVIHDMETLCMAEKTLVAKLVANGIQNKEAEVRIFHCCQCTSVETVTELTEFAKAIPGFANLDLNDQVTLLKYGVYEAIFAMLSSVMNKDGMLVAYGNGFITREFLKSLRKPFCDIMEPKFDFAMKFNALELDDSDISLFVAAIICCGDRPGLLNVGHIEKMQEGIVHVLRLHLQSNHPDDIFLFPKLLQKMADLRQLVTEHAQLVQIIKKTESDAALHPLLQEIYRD
Excerpt: We used a reporter gene assay in HepG2 cells to screen for agonists of the peroxisome proliferator-activated receptors. Peroxisome proliferator-activated receptors (PPARs) and other members of the nuclear hormone receptor family are important drug targets for the treatment of metabolic diseases. PPARs play crucial roles in lipid and glucose metabolism, respectively. Therefore, screening methods that help to rapidly identify activators of these receptors should be of considerable value. INV-75 activated a classic PPARα gene, Acetyl-CoA Oxidase (ACO) in a dose dependent and time dependent fashion (FIG. 6A). The time course experiment was performed in presence of INV-75 up to 15 hours. […] We next tested the specificity of INV-75 for PPARα by performing experiments in HepG2 cells transfected with yeast GAL4-PPARα-LBD plasmid+UAS-Luciferase; GAL4-PPARδ-LBD plasmid+UAS-Luciferase and […]. The PPARα, PPARδ and PPARγ binding assays were performed using multiple concentrations of INV-75 (1 μM, 10 μM, 100 μM and 1000 μM). The level of luciferase activity corresponded to the degree of PPAR activation. The results were compared with classic PPAR agonists such as WY-14643 (PPARα agonist), Bezafibrate (PPARδ agonist) and Rosiglitazone ([…]).

In the case of CC(=O)Oc1cc2c(cc1[N+](=O)[O-])OCO2 [INV-75, 3,4-methylenedioxy-6-nitrophenyl acetate], the “basal and stimulated superoxide production in aortic tissue lysates” value [1] is reported as “lower”, the “reduction in atherosclerosis burden compared to control group” value [2] is reported as “Approximately 60%” and the “time to increased nuclear binding of SREBP-2” value ([3]; HepG2, 0.1 mM) is reported as < 1 h. For the same compound, the “dose effective in inducing translocation of SREBP-2 to the nucleus” value ([3]; HepG2, 1 hour) was ≥ 100 nM, the “dose having an effect in increasing the mature form of SREBP-2” value [4] was ≥ 10 nM and the “agonist properties on PPARα activation” value [5] was “selective but partial agonist”. For the same compound, the “PPARα ligand binding activity” value ([5]; 1 μM to 1000 μM) was “increased”.

— US8198317B2, “Methylenedioxy phenolic compounds and their use to treat disease” (The Ohio State University Research Foundation, priority 2008, dated 2012)
